Laboratory results as given in patent US4665053A, “Peptide derivatives, the preparation and their use as elastase inhibitors” (Centre National de la Recherche Scientifique, priority 1983, dated 1987).
Residues, ends and D or L forms follow the SMILES beside them. *: point of attachment. Oleoyl = CCCCCCCC/C=C\CCCCCCCC(=O)*

Assays:
[1] = target: T1, pancreatic elastase (Sus scrofa, UniProt P00772); experiment: Resistance of pretreated radiolabelled elastin to hydrolysis by pancreatic elastase; assay type: biochemical, hog; settings: elastin pretreated 24 hours, washed, then 0.05 mg pancreatic elastase; molar ratio inhibitor/enzyme 5 × 10^4
Experimental: (1c) Elastin pretreated with these substances is partially resistant to enzymatic hydrolysis by the elastases.
For these tests, elastin has been radiolabelled with tritium borohydride NaBH4, specific activity: 1.7×10^5 cmp/mg.
1 mg of elastin is treated with […] of a solution of different compounds in 1 ml of Tris HCl buffer, pH-8.0, for 24 hours; the mixture is centrifuged and the insoluble elastin washed with 1 ml of buffer. 0.05 mg of pancreatic elastase is then added and hydrolysis of the polymer is quantified by measurement of the radioactive peptides liberated during the course of the hydrolysis.

[2] = target: T2, human leucocytic elastase (Homo sapiens, UniProt P08246); experiment: Inhibition of purified leucocytic elastase, hydrolysis of synthetic paranitroanilide substrates; assay type: biochemical; settings: for Percent inhibition: Leucocytic elastase 10×10^-9 M, molar ratio inhibitor/enzyme 4 × 10^4, 15 minutes pre-incubation; for elastase inhibitor (conclusion in words): conclusion on elastases in general
T2 construct: purified human leucocytic elastase starting from the spleen; from tissue; host or cells: human spleen
T2 sequence (P08246 30-267): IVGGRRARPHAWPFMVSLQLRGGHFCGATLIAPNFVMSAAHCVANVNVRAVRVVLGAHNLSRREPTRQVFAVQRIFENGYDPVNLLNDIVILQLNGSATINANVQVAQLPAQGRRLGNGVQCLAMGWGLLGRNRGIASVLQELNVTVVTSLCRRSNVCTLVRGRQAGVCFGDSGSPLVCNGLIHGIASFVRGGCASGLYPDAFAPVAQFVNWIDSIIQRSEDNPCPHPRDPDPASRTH
Experimental: (§1) Purified elastases employed: hog pancreatic elastase (120 U/mg) and purified human leucocytic elastase starting from the spleen.
(§2) Molar concentration of these enzymes: pancreatic elastase: 4×10^-9 M; leucocytic elastase: 10×10^-9 M.
(§3) The enzymatic activity of these elastases is followed by hydrolysis of specific synthetic substrates: N-succinoyltrialanine paranitroanilide, acetyl-bis alanylprolyl-alanine paranitroanilide at a final concentration of 1.25 mM in a Tris/HCl buffer, pH=8-8.6. The variation in optical density at 410 nm is followed directly in a Beckman type Acta C III spectrophotometer.
(§4) In the inhibition tests, the oleoyl compounds are pre-incubated 15 minutes with the elastases before determing the residual enzymatic activities.

[3] = target: T3, hog pancreatic elastase (Sus scrofa, UniProt P00772); experiment: Inhibition of purified pancreatic elastase, hydrolysis of synthetic paranitroanilide substrates; assay type: biochemical; settings: Pancreatic elastase 4×10^-9 M; molar ratio inhibitor/enzyme 4 × 10^4; 15 minutes pre-incubation
T3 construct: Purified elastases employed: hog pancreatic elastase (120 U/mg); host or cells: pancreas, by the enzyme's name only
Experimental: as §1, §2, §3, §4

[4] = target: T1, pancreatic elastase; experiment: In vivo inhibition of degradation of cutaneous elastic fibers induced by intradermal injection of pancreatic elastase; set-up: host or cells: exogenous enzyme injected into rabbit skin; settings: rabbit skin, intradermal pretreatment, histology and quantitative morphometry
Experimental: 2. In vivo study of the inhibiting action of Oleoyl-bis-alanyl-proline-alanine towards the enzymatic degradation of cutaneous elastic fibers induced by intradermal injection of pancreatic elastase
For these tests, young Garenne rabbits (1 month) have been employed. 3 types of intradermal injections (volume: 0.25 ml; solvent: phosphate buffer, pH 7.0) have been performed on the backs of the test animals.
1. Control injection: injection of 0.25 ml of phosphate buffer only;
2. Injection of hog pancreatic elastase: 10 micrograms (1.2 units […]) in 0.25 ml of buffer; and
3. Injections of 50-250 micrograms of Ol--(Ala)2 --Pro--Ala (8×10^-8 to 3×10^-7 mole) in 0.25 ml of buffer followed by an injection at the same site of 10 micrograms (1.2 units, 4×10^-10 mole) of pancreatic elastase in 0.25 ml of buffer.
Different samples of rabbit skin are then treated in histology in order to permit visualization of elastic fibers.
The histologic observation and studies of quantitative morphometry reveal: […]

T1 sequence (P00772 27-266): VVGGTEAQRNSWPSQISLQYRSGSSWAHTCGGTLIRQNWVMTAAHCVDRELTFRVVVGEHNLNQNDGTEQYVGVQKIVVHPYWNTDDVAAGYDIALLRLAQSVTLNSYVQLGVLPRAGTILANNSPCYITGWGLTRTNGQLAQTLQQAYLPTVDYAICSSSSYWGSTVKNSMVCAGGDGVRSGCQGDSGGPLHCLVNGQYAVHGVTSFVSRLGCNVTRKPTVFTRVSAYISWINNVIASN
T3 sequence (P00772 27-266): as above

| SMILES | Percent inhibition relative to samples without pretreatment [1] [%] | Percent inhibition [2] [%] | elastase inhibitor (conclusion in words) [2] | Percent inhibition [3] [%] | elastic tissue preserved ([4]; molar ratio inhibitor/enzyme 2×10^2) | elastic tissue preserved ([4]; molar ratio inhibitor/enzyme 10^3) |
| --- | --- | --- | --- | --- | --- | --- |
| C[C@H](N)C(=O)N[C@@H](C)C(=O)N1CCC[C@H]1C(=O)N[C@@H](C)C(=O)O [H(Ala)2 Pro Alanine, L-Alanyl-L-Alanyl-L-Proyl-Alanine, reference compound] (H-AAPA-OH) | 0 |  |  |  |  |  |
| CC(C)[C@H](NC(=O)[C@@H]1CCCN1C(=O)[C@H](C)NC(=O)[C@H](C)N)C(=O)O [H(Ala)2 Pro Valine, L-Alanyl-L-Alanyl-L-Prolyl-L-Valine, reference compound] (H-AAPV-OH) | 0 |  |  |  |  |  |
| CCCCCCCC/C=C\CCCCCCCC(=O)N[C@@H](C)C(=O)N[C@@H](C)C(=O)N1CCC[C@H]1C(=O)N[C@@H](C)C=O [Ol(Ala)2 Pro Alaninal, Oleoyl-L-Alanyl-L-Alanyl-L-Prolyl-L-Alaninal] (Oleoyl-AAPA-aldehyde) | 98 | 90 | act as elastase inhibitors | 85 |  |  |

Next, values leading:

| Percent inhibition relative to samples without pretreatment [1] [%] | Percent inhibition [2] [%] | elastase inhibitor (conclusion in words) [2] | Percent inhibition [3] [%] | elastic tissue preserved ([4]; molar ratio inhibitor/enzyme 2×10^2) | elastic tissue preserved ([4]; molar ratio inhibitor/enzyme 10^3) | SMILES |
| --- | --- | --- | --- | --- | --- | --- |
|  | 5 | act as elastase inhibitors | 15 | 40-60% | 60-80% | CCCCCCCC/C=C\CCCCCCCC(=O)N[C@@H](C)C(=O)N[C@@H](C)C(=O)N1CCC[C@H]1C(=O)N[C@@H](C)C(=O)O [Ol(Ala)2 Pro Alanine, Oleoyl-L-Alanyl-L-Alanyl-L-Prolyl-L-Alanine] (Oleoyl-AAPA-OH) |
| 46 | 51 | act as elastase inhibitors |  |  |  | CCCCCCCC/C=C\CCCCCCCC(=O)N[C@@H](C)C(=O)N[C@@H](C)C(=O)N1CCC[C@H]1C(=O)N[C@H](C(=O)O)C(C)C [Ol(Ala)2 Pro Valine, Oleoyl-L-Alanyl-L-Alanyl-L-Prolyl-L-Valine] (Oleoyl-AAPV-OH) |
